Measurements reported in publication PMC8438627 (The Journal of Cell Biology, 2021).

System: NAP1L4
Assay: IP-IB of HA-tagged
Assay type: binding
Settings: HA-tagged (PR)12 mixed with HEK293 cell lysates containing increasing concentrations of 1,6-hexanediol

With `OCCCCCCO` [1,6-hexanediol] the “immunoprecipitated NAP1L4 signal with increasing 1,6-hexanediol” value was “faded accordingly”.
